This note sets out measurements from patent US20090270342A1, “IMMUNOREGULATORY AGENT” (priority 2006, published 2009).

For this assay, the system named is anti-Cry j 1-IgE, IgG1 in serum. Put plainly: Anti-Cry j 1 antibody in serum of Cry j 1/alum-sensitized mice (Experiment 5). In kind it is in vivo. The note with it: for Anti-Cry J 1-IgG1 in serum / Anti-Cry J 1-IgG1 in serum, relative to control: two weeks after the second sensitization. The procedure: In order to investigate the effect of lactosucorse on systemic immunity, antibody level in serum was measured. Similarly as in Experiment 1, female BALB/c mice (six weeks old) were preliminary reared for one week on “AIN-93G”, the same standard purified diet as used in Experiment 1. Successively, “NYU-KA OLIGO 700”, a saccharide composition comprising 71.4% (w/w), on a dry solid basis, of lactosucrose commercialized by Hayashibara Shoji Inc., Okayama, Japan, was incorporated into the above purified diet, in which corn starch equal to the amount of the saccharide composition comprising lactosucrose had been removed, to give a lactosucrose content of 2% (w/w) or 5% (w/w), and five to seven mice/group were allowed to ingest the resulting test diet freely. Mice, allowed to ingest “AIN-93G”, as the standard purified diet, were used as control. At 10 days after from starting the administration of the test diet, mice were sensitized to antigen by administrating 20 μg of ovalbumin (OVA) (grade V, commercialized by Sigma Corporation) as antigen and 4.5 mg of “IMJECT®”, alum commercialized by Pierce ThermoScientific as adjuvant, into the peritoneal cavity. Successively, 15 days after from the first sensitization, the second sensitization was carried out by the same procedure. The blood was collected from caudal vein of mice at one, two, and three weeks after from the second sensitization, the serum was collected by centrifugation, and the amount of IgE to OVA was measured by EIA. In the cases of IgG1 and IgG2a, the amount of antibody was measured using serum collected at two weeks after from the second sensitization. The IgE and IgG2a titers were measured by capture EIA and IgG1 titer was measured by indirect EIA. Each titer was calculated by calibration curve prepared by using anti-OVA mouse serum (IgE: 1.760 U/ml, IgG1: 128,000 U/ml, IgG2a: 7,040 u/ml) as a standard serum. The amounts of IgE at one, two, or three weeks after from the second sensitization are in Table 5, and the amounts of IgG1 and IgG2a of two weeks after from the second sensitization are in Table 6. The percentages in parentheses in tables mean a relative value to the antibody concentration in serum of the control mice.
In order to investigate the usefulness of lactosucrose ingestion for preventing or treating allergy to cedar pollen, the effect of lactosucrose for suppressing the production of IgE, caused by Cry j 1, a cedar pollen allergen, was investigated as follows. Except for using 20 μg of “PURIFIED CEDAR POLLEN ALLERGEN Cry j 1”, Cry j 1 commercialized by Seikagaku Corporation, Tokyo, Japan, as a substitute for OVA, the experiment was carried out by the same procedure as in Experiment 4, and the amount of anti-Cry j 1-IgE was measured at one and two weeks after the second sensitization. Further, the amount of anti-Cry j 1-IgG1 was also measured at two weeks after the second sensitization. The amounts of anti-Cry j 1-IgE and anti-Cry j 1-IgG1 were measured by the same procedure as in Experiment 4 except for using “PURIFIED CEDAR POLLEN ALLERGEN Cry j 1-Biotin”, commercialized by Seikagaku Corporation, Tokyo, Japan, as a solid phase. The results for IgE and IgG1 are in Tables 7 and 8, respectively.

On to `OC[C@H]1O[C@@H](O[C@H]2[C@H](O)[C@@H](O)[C@@H](O[C@]3(CO)O[C@H](CO)[C@@H](O)[C@@H]3O)O[C@@H]2CO)[C@H](O)[C@@H](O)[C@H]1O` [Lactosucrose, β-D-galactosyl-(1,4)-α-D-glucosyl-(1,2)-β-D-fructoside], for which the “Anti-Cry j 1-IgE in serum” value worked out at 351 ± 277 U/ml (Lactosucrose 2% (w/w) diet, one week after the 2nd sensitization); 239 ± 180 U/ml (Lactosucrose 2% (w/w) diet, two weeks after the 2nd sensitization); 620 ± 157 U/ml (Lactosucrose 5% (w/w) diet, one week after the 2nd sensitization); 404 ± 114 U/ml (Lactosucrose 5% (w/w) diet, two weeks after the 2nd sensitization). For the same compound, the “Anti-Cry J 1-IgG1 in serum” value runs as follows: (Lactosucrose 2% (w/w) diet) 10.3 ± 6.01 ×10^4 U/ml; (Lactosucrose 5% (w/w) diet) 7.51 ± 2.89 ×10^4 U/ml. The “Anti-Cry j 1-IgE in serum, relative to control” value is recorded as “(44%)” (Lactosucrose 2% (w/w), one week after the 2nd sensitization); 44% (Lactosucrose 2% (w/w), one week after the 2nd sensitization, listed as lactosucrose); “(23%)” (Lactosucrose 2% (w/w), two weeks after the 2nd sensitization); 23% (Lactosucrose 2% (w/w), two weeks after the 2nd sensitization, listed as lactosucrose); “(77%)” (Lactosucrose 5% (w/w), one week after the 2nd sensitization); “(38%)” (Lactosucrose 5% (w/w), two weeks after the 2nd sensitization). Besides, the “Anti-Cry J 1-IgG1 in serum, relative to control” value is, setting by setting: (Lactosucrose 2% (w/w)) “(80%)”; (Lactosucrose 5% (w/w)) “(58%)”.
